Counter-ions that a name gives are not always drawn. Square brackets hold non-standard residues; d marks the D form. Peptide text beside a SMILES is read from it.
Assay: solubility of the fatty acid salt in water
Type: physicochemical
Conditions: for solubility in water: 24°C
Method: 200 mg of D-Ser^1 -Lys^17,18 -β^1-18 -corticotropin-Lys^18 -amide hexaacetate hydrate are dissolved in 24 ml of ethanol and 1.6 ml of water, and thereafter a solution of 88 mg of lauric acid in 10 ml of ethanol is added. The mixture is evaporated to dryness, the residue is dried overnight in vacuo over sodium hydroxide and is then dissolved in 25 ml of tert. butanol and 5 ml of water whilst warming, the solution is filtered and the filtrate is lyophilized. The residue is again dried in vacuo over sodium hydroxide. 265 mg of lauric acid salt are obtained as a light powder. The solubility of the product in water at 24°C is less than 0.1% (acetic acid salt > 10%).

Q: Which solubility in water does the source give for CSCC[C@H](NC(=O)[C@H](CO)NC(=O)[C@H](Cc1ccc(O)cc1)NC(=O)[C@H](N)CO)C(=O)N[C@@H](CCC(=O)O)C(=O)N[C@@H](Cc1c[nH]cn1)C(=O)N[C@@H](Cc1ccccc1)C(=O)N[C@@H](CCCNC(=N)N)C(=O)N[C@@H](Cc1c[nH]c2ccccc12)C(=O)NCC(=O)N[C@@H](CCCCN)C(=O)N1CCC[C@H]1C(=O)N[C@H](C(=O)NCC(=O)N[C@@H](CCCCN)C(=O)N[C@@H](CCCCN)C(=O)N[C@@H](CCCCN)C(=O)N[C@@H](CCCCN)C(N)=O)C(C)C [Example 1, D-Ser^1 -Lys^17,18 -β^1-18-corticotropin-Lys^18-amide] here?
A: The solubility in water was “less than 0.1%”.

Q: Which “solubility in water (in words)” value does the source give for CSCC[C@H](NC(=O)[C@H](CO)NC(=O)[C@H](Cc1ccc(O)cc1)NC(=O)[C@H](N)CO)C(=O)N[C@@H](CCC(=O)O)C(=O)N[C@@H](Cc1c[nH]cn1)C(=O)N[C@@H](Cc1ccccc1)C(=O)N[C@@H](CCCNC(=N)N)C(=O)N[C@@H](Cc1c[nH]c2ccccc12)C(=O)NCC(=O)N[C@@H](CCCCN)C(=O)N1CCC[C@H]1C(=O)N[C@H](C(=O)NCC(=O)N[C@@H](CCCCN)C(=O)N[C@@H](CCCCN)C(=O)N[C@@H](CCCCN)C(=O)N[C@@H](CCCCN)C(N)=O)C(C)C [Example 4, D-Ser^1 -Lys^17,18 -β^1-18-corticotropin-Lys^18-amide] here?
A: Its value is “water-insoluble”.

Q: With CSCC[C@H](NC(=O)[C@H](CO)NC(=O)[C@H](Cc1ccc(O)cc1)NC(=O)[C@H](N)CO)C(=O)N[C@@H](CCC(=O)O)C(=O)N[C@@H](Cc1c[nH]cn1)C(=O)N[C@@H](Cc1ccccc1)C(=O)N[C@@H](CCCNC(=N)N)C(=O)N[C@@H](Cc1c[nH]c2ccccc12)C(=O)NCC(=O)N[C@@H](CCCCN)C(=O)N1CCC[C@H]1C(=O)N[C@H](C(=O)NCC(=O)N[C@@H](CCCCN)C(=O)N[C@@H](CCCCN)C(=O)N[C@@H](CCCCN)C(=O)N[C@@H](CCCCN)C(=O)N1CCC[C@H]1C(=O)O)C(C)C [Example 6, D-Ser^1 -Lys^17,18 -β^1-19-corticotropin] as the compound, how does the “solubility in water (in words)” value read?
A: Its value is “sparingly soluble in water”.

Q: Which “solubility in water (in words)” value does the source give for CSCC[C@H](NC(=O)CNC(=O)[C@H](Cc1ccc(O)cc1)NC(=O)[C@H](N)CO)C(=O)N[C@@H](CCC(=O)O)C(=O)N[C@@H](Cc1c[nH]cn1)C(=O)N[C@@H](Cc1ccccc1)C(=O)N[C@@H](CCCNC(=N)N)C(=O)N[C@@H](Cc1c[nH]c2ccccc12)C(=O)NCC(=O)N[C@@H](CCCCN)C(=O)N1CCC[C@H]1C(=O)N[C@H](C(=O)NCC(=O)N[C@@H](CCCCN)C(=O)N[C@@H](CCCCN)C(=O)N[C@@H](CCCCN)C(=O)N[C@@H](CCCCN)C(N)=O)C(C)C [Example 8, D-Ser^1 -Gly^3 -Lys^17,18 -β^1-18-corticotropin-Lys^18-amide] (H-[dS]YGMEHFRWGKPVGKKKK-NH2) here?
A: Its value is “practically insoluble in water”.

Q: With CSCC[C@H](NC(=O)[C@H](CO)NC(=O)[C@H](Cc1ccc(O)cc1)NC(=O)[C@H](N)CO)C(=O)N[C@@H](CCC(=O)O)C(=O)N[C@@H](Cc1c[nH]cn1)C(=O)N[C@@H](Cc1ccccc1)C(=O)N[C@@H](CCCNC(=N)N)C(=O)N[C@@H](Cc1c[nH]c2ccccc12)C(=O)NCC(=O)N[C@@H](CCCCN)C(=O)N1CCC[C@H]1C(=O)N[C@H](C(=O)NCC(=O)N[C@@H](CCCCN)C(=O)N[C@@H](CCCCN)C(=O)N[C@@H](CCCCN)C(=O)N[C@@H](CCCCN)C(N)=O)C(C)C [acetic acid salt, D-Ser^1 -Lys^17,18 -β^1-18-corticotropin-Lys^18-amide hexaacetate hydrate, reference compound] as the compound, how does the solubility in water (hydrate) read?
A: Its solubility in water is greater than 10%.

Q: For “D-Ser^1 -Gly^3 -Lys^17,18 -corticotropin-Lys^18 -amide [Example 9]”, which “solubility in water (in words)” value is on record?
A: The value was “cannot be dissolved in water”.
